According to patent US20260347399A1, “BRAIN PENETRATING PEPTIDES AND METHODS OF USE” (priority 2022, published 2026):
Entries after “also recorded” stand apart in the source; their conditions may differ. Where two headings read alike, the source gives them in different places. Peptide text beside a SMILES is read from it. * marks the point of attachment. 5FAM = O=C1OC2(c3ccc(O)cc3Oc3cc(O)ccc32)c2ccc(C(=O)*)cc21; FAM = 5(6)-carboxyfluorescein; Ahx = NCCCCCC(=O)O

Columns and labels:
[1] = tested on: Huntington's disease subjects; settings: human, in vivo; cited from earlier work
ALS subjects = settings: human, in vivo, cited from earlier work
ADHD / ASD subjects = settings: cited from earlier work
Neuro2A cells [2] = experiment: In vitro FAM-peptide binding and uptake; type: cell-based, mouse; settings: 30 μM, 1 h, 4 °C (binding) or 37 °C (uptake)
Description: To assess the binding and uptake of Cerepep peptide, Neuro2A were cultured in 24-well plates on polylysine coated glass coverslips until 80-90% confluency. FAM-Cerepep (FAM-Ahx-SRRVISRAKLAAAL-OH (SEQ ID NO:9)) or control FAM-RPAR (FAM-RPARPAR-OH (SEQ ID NO:74)) peptide with the final concentration of 30 µM was added to Neuro2A cells in growth media and incubated at 4 °C (to study the binding) or 37 °C (to study the uptake) for 1 h. The cells were washed 4 times with growth media and fixed in methanol. The samples were stained with anti-fluorescein antibody to enhance the FAM signal. The fixed cells were first blocked with PBST (PBS+0.05% Tween 20), 5% BSA, 5% goat serum at RT for 30 min, followed by incubation with rabbit anti-fluorescein IgG (cat. no. A889, Thermo Fisher Scientific, MA, USA) at 4 °C for O/N and Alexa 647 goat anti-rabbit IgG secondary antibody at RT for 1h. Nuclei were counterstained with DAPI at 1 μg/ml. The coverslips were mounted on glass slides with Fluoromount-G (Electron Microscopy Sciences, PA, USA), imaged using confocal microscopy (Olympus FV1200MPE, Tokyo, Japan) and analyzed using the FV10-ASW4.2 software.
The binding (at 4 °C) and uptake (at 37 °C) of synthetic FAM-Cerepep by Neuro2A cells was also studied, comparing it to a control FAM-RPAR peptide which has a similar charge.

mouse brain = experiment: FAM-Cerepep brain distribution; type: in vivo; settings: 100 μl of 2 mM i.v., 2.5 h circulation
Description: To assess the ability of FAM-conjugated to Cerepep to traverse the BBB, 100 μl of 2 mM FAM-Cerepep or FAM-scrambled Control peptide (SARVISRAKLARAL (SEQ ID NO:70)) was injected into the tail vein of mice n=3. After 2.5 h of circulation, the animals were anesthetized and perfused, the brains were collected, cryosected, fixed, permeabilized, and incubated with CD31-rat and anti-fluorescein-rabbit primary antibodies at room temperature for 2 hours. After washes, sections were incubated with Alexa Fluor […] anti-rat and Alexa Fluor 647 anti-rabbit secondary antibodies, washed and stained with DAPI. Images were taken using a confocal microscope in 4 different areas of the brain (cortex, cerebellum, hippocampus, brainstem).
To quantify FAM-Cerepep in different regions of the brain, expts were set up to assess fluorescence intensity. Briefly, 100 μl of 2 mM FAM-Cerepep or FAM-scrambled peptide (SARVISRAKLARAL (SEQ ID NO:70)) was injected into the tail vein of mice n=3. […] Images were taken under a confocal microscope in 4 different areas of the brain (cortex, cerebellum, hippocampus, brainstem), and fluorescence intensity in each brain region was measured and quantified using ImageJ, as depicted in FIGS. 22A-22E.

mature neurons = experiment: FAM-Cerepep colocalization with mature neurons; type: in vivo, mouse; settings: 100 μl of 2 mM i.v., 2.5 h
Description: (§1) To assess the ability of FAM-conjugated to Cerepep to colocalize with mature neurons, 100 μl of 2 mM FAM-Cerepep or FAM-scramble (SARVISRAKLARAL (SEQ ID NO: 70)) was injected into the tail vein of mice n=3. After 2.5 h of circulation, the animals were anesthetized and perfused, the brains were collected, cryosected, fixed, permeabilized, and incubated with NeuN-mouse and anti-fluorescein-rabbit primary antibodies for 2 hours at room temperature. After washes, sections were incubated with Alexa Fluor […] anti-mouse and Alexa Fluor 647 anti-rabbit secondary antibodies, sections were washed and stained with DAPI. Pictures were taken under a confocal microscope in 4 different areas of the brain (cortex, cerebellum, hippocampus, brainstem).

astrocytes = experiment: FAM-Cerepep colocalization with astrocytes; type: in vivo, mouse; settings: 100 μl of 2 mM i.v., 2.5 h
Description: as §1, with “astrocytes,” for “mature neurons,”, “NO:70))” for “NO: 70))”, “GFAP-rat” for “NeuN-mouse”, “anti-rat” for “anti-mouse”

microglia = experiment: FAM-Cerepep colocalization with microglia; type: in vivo, mouse; settings: 100 μl of 2 mM i.v., 2.5 h
Description: To assess the ability of FAM-conjugated to Cerepep to colocalize with microglia, 100 μl of 2 mM FAM-Cerepep or FAM-scramble (SARVISRAKLARAL (SEQ ID NO: 70)) was injected into the tail vein of mice n=3. After 2.5 h of circulation, the animals were anesthetized and perfused, the brains were collected, cryosected, fixed, permeabilized, and incubated with CD11b-rat and anti-fluorescein-rabbit primary antibodies at room temperature for 2 hours. After washes, sections were incubated with Alexa Fluor […] anti-rat and Alexa Fluor 647 anti-rabbit secondary antibodies, sections were washed and stained with DAPI. Pictures were taken under a confocal microscope in 4 different areas of the brain (cortex, cerebellum, hippocampus, brainstem).

Neuro2A cells [3] = experiment: Effect of endocytic inhibitors on CP-AgNP uptake (flow cytometry); type: cell-based, mouse; settings: inhibitor 30 min at 37 °C: nystatin 50 μM, cytochalasin D 4 μM, chlorpromazine 30 μM
Description: […] The CP-AgNPs or control biotin-AgNPs were then added, and the cells were incubated at 37 °C for 1h, treated with an etching solution to remove accessible surface-bound AgNPs and subsequently washed with DPBS. The fluorescence of the labeled AgNPs was detected using the BD Accuri flow cytometer by monitoring the 555 nm channel FL2 and analyzed using FCS Express 7 software.
To study how treatment with endocytic inhibitors (nystatin, EIPA, cytochalasin D and chlorpromazine) affects the uptake of CP-AgNPs in Neuro2A cells, flow cytometry was used. Nystatin was used to block caveolae/lipid-mediated endocytosis, EIPA to block micropinocytosis, cytochalasin D to block actin polymerization and micropinocytosis and chlorpromazine to block clathrin-mediated endocytosis.

human LRP1 = human LRP1 (Homo sapiens, UniProt Q07954); experiment: Surface plasmon resonance analysis; type: binding; settings: SPR
Description: Whether Cerepep (SRRVISRAKLAAAL (SEQ ID NO:9)) binds to human LRP1 purified from placenta was tested using surface plasmon resonance analysis. […] Furthermore, binding of CP-neutravidin complex to LRP1 is inhibited by RAP and EDTA, as can be expected with LRP1 ligands.
To determine which amino acid positions are important for brain homing of SERVISRAKLAAAL (SEQ ID NO:9), a pool of peptide-phage clones was compiled, where every amino acid position was one-by-one changed to alanine (alanines were changed to leucines). The peptide-phages were mixed in equimolar ratio, the Cerepep phage was included as a positive control and insertless as a negative control. The phage mix was injected into mice and following a 1 h circulation the amount of different phage clones in the brain was determined using HTS. […] Surface plasmon resonance analysis with human LRP-1 immobilized on a BIAcore sensor chip was used to assess whether CP-neutravidin complex directly interacts with human LRP-1. Angiopep-2-neutravidin complex was used as a positive control (FIGS. 7A-7B).

P3 human stem cells = experiment: Inhibition of AgNP-Cerepep binding (FACS); type: cell-based; settings: 4 °C, 1 h
Description: Briefly, P3 human stem cells were incubated with the indicated antibody (AB) or RAP (diluted in 20% of glycerol) at 4 °C for 1 h, after cells were exposed to AgNP-control or AgNP-Cerepep for 1 h at 4 °C, then the cells were analyzed by FACS.

[4] = tested on: GBM and normal brain parenchyma; experiment: Synthetic peptide homing in glioma-bearing mice (IHC); type: in vivo, mouse; settings: synthetic peptide i.v., 1 h; WT-GBM and VEGFko GBM-bearing mice
Description: CVGTNCY (SEQ ID NO:2) peptide-phage or control phage were injected iv into mice, after one hour circulation animals were perfused with 20 ml PBS, organs were collected, weighed, and dropped to 1% NP40-LB solution. Organs were homogenized and titer of each tissue was determined. FAM-labeled peptides (2 mM of peptide in PBS) were injected intravenously and 3 hours later the animals were perfused with 20 mL of PBS. The organs were excised, snap-frozen in the vapor of liquid nitrogen, and stored at −80 °C. For confocal microscopy, the tissues were sectioned at 15 μm and stained with antibodies and DAPI.
Cryosections (15 μm) on Superfrost Plus slides were fixed in cold methanol, washed in PBS, treated with 3% hydrogen peroxide, and blocked in PBS containing 0.05% Tween-20, 5% BSA, and 5% goat serum (GE Healthcare, UK) for 1 h. The sections were immunostained with rabbit anti-fluorescein (cat #A889, Thermo Fisher Scientific, MA, USA) antibody overnight at +4 °C. […] Sections were imaged with Leica Aperio VERSA microscope slide scanner. Imaged were processed with Aperio Image Scope (v12.4.3.5008).
The synthetic CVGTNCY (SEQ ID NO:2) peptide or scrambled CVGTNCY (SEQ ID NO:2) homing in WT-GBM and VEGFko GBM-bearing mice was analyzed after i.v. injection and perfusion of the animals. Cryosections of glioma-bearing brains were stained with anti-FAM antibody and tyramide amplification kit to enhance the signal of the peptide.
To assess homing of CVG peptide in glioblastoma, CVGTNCY (SEQ ID NO:2) peptide-phage was injected iv into mice bearing either WT-GBM, VEGFko, U87MG or NCH421k GBM, and to mice without a tumor. At one hour time point mice were perfused, brains and control organs collected and titered. […] (FIGS. 17A-17B) Distribution of CVG peptide in GBM and brain parenchyma was also assessed. CVGTNCY (SEQ ID NO:2) peptide or its scrambled version (CVYTCNG; (SEQ ID NO: 68)) was injected iv into glioma bearing mice, after 1 hour circulation mice were perfused and tissues of interest snap-frozen in liquid nitrogen.

human LRP1, sequence (Q07954 20-4544): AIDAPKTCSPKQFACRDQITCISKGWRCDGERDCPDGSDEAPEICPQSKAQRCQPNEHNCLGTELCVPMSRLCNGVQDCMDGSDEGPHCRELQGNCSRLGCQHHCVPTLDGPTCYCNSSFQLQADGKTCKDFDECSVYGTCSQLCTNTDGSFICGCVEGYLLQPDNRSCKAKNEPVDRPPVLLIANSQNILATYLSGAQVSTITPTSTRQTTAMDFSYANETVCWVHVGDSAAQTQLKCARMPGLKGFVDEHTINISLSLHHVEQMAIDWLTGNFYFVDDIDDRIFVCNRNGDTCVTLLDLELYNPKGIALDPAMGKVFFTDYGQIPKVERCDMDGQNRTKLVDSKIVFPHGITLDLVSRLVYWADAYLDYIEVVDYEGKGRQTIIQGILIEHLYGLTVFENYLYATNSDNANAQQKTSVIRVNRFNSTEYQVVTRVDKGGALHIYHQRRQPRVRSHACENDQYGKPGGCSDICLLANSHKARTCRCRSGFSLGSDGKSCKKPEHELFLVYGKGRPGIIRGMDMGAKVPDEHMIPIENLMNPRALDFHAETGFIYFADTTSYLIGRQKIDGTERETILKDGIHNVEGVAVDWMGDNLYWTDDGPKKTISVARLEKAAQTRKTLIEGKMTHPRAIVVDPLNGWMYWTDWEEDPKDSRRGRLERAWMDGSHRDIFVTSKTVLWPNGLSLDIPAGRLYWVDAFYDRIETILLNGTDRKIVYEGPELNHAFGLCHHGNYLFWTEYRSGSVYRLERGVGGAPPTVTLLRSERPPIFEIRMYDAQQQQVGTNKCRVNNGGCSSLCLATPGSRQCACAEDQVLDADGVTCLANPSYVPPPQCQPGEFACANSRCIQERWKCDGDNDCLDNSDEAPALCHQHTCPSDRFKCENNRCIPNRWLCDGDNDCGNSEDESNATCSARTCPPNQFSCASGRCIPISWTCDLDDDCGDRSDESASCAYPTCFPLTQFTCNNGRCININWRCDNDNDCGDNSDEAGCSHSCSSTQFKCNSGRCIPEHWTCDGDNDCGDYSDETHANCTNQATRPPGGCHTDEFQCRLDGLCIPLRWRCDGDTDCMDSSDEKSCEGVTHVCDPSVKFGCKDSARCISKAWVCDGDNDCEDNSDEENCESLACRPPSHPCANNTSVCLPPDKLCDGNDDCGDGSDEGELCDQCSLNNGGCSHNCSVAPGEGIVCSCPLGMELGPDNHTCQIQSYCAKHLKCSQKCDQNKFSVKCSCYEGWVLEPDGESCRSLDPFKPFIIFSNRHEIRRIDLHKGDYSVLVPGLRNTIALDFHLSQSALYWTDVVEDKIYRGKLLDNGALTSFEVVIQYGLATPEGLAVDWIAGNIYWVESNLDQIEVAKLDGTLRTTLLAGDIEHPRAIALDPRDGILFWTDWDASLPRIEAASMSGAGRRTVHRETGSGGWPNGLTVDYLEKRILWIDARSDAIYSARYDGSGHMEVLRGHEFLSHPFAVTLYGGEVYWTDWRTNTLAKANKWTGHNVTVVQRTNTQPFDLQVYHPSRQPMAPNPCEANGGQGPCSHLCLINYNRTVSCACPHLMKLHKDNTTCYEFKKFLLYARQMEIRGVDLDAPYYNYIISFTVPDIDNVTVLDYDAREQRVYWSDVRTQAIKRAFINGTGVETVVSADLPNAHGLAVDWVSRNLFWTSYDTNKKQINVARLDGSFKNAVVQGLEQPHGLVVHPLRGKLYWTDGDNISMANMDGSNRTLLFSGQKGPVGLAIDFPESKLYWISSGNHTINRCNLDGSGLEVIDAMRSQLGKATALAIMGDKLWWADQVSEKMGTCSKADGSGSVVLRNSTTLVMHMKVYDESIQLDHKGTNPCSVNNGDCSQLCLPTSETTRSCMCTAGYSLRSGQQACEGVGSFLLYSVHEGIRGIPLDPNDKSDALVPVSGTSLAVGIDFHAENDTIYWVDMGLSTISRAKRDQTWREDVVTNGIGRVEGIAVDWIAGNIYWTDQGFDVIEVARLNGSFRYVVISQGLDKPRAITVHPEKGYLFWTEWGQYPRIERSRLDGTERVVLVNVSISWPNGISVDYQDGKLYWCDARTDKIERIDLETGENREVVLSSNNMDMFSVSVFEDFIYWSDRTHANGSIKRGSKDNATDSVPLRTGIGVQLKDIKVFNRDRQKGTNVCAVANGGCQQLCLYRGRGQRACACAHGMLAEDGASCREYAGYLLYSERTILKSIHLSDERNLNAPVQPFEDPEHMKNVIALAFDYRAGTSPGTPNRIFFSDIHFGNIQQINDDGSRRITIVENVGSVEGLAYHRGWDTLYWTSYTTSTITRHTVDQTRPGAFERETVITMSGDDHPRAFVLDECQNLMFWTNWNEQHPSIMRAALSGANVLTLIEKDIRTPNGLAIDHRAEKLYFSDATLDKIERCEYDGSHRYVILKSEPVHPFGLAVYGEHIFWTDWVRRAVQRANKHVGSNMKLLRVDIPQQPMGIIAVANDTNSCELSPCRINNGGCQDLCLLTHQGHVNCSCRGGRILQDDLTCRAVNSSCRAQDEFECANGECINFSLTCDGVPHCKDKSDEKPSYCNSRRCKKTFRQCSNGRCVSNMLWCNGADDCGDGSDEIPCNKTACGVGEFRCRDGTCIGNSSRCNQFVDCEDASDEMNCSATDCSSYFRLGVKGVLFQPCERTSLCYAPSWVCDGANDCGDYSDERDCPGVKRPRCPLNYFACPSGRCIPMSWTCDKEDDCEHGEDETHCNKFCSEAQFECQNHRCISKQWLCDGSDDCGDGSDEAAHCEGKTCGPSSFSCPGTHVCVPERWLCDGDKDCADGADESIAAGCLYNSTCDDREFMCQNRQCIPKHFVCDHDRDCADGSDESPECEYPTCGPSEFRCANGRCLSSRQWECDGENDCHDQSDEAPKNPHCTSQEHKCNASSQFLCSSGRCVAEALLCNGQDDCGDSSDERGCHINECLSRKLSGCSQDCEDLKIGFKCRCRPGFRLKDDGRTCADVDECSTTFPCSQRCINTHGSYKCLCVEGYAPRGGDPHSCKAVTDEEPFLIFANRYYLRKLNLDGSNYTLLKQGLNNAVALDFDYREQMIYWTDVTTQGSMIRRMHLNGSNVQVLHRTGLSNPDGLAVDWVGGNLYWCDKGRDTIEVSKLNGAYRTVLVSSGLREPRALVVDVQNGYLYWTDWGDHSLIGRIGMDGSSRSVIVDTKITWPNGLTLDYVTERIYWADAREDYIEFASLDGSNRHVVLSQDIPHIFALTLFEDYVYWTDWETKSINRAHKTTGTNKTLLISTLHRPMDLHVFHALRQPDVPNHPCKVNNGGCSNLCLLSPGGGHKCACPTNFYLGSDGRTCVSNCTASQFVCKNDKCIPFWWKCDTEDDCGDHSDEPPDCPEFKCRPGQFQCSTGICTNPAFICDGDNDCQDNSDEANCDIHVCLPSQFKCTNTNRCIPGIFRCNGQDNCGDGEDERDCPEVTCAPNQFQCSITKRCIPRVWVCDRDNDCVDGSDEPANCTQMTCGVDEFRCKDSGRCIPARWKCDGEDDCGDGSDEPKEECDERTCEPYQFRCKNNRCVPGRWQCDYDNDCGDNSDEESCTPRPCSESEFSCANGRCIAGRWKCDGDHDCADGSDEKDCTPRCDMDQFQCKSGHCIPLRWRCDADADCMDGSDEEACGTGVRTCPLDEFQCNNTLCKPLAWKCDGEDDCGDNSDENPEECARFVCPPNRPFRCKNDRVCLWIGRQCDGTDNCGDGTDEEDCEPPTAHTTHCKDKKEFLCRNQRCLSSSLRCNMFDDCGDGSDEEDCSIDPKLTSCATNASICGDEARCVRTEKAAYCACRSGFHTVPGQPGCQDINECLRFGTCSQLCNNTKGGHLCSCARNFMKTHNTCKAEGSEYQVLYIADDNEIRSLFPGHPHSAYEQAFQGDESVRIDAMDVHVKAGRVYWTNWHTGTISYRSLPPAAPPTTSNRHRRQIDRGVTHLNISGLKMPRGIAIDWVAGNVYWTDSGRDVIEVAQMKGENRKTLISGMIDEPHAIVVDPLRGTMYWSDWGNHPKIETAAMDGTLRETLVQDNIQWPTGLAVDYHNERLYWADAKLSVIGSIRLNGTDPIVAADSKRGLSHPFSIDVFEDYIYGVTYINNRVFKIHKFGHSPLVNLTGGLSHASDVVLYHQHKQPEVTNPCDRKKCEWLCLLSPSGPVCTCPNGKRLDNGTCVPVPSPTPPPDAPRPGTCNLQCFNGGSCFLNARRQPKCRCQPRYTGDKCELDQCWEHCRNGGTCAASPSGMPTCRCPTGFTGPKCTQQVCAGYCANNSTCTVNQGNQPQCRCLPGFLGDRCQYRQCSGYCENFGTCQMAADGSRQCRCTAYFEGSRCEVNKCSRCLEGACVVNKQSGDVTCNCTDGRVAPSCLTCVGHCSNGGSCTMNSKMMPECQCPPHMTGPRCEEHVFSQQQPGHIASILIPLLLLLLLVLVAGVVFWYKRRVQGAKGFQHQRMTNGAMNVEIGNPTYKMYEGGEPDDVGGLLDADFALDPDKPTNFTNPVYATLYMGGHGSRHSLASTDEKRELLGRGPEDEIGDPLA

CC(Cc1ccccc1)(NC(=O)CN)c1ccccc1 (stereo not drawn) [remacemide]
results in Huntington's disease [1]: preliminary positive results

Nc1nc2ccc(OC(F)(F)F)cc2s1 [riluzole, 2-amino-6-(trifluoromethoxy)benzothiazole]
survival time in subjects with ALS (ALS subjects): borderline significance with respect to survival time | survival time in subjects with ALS (ALS subjects; listed as Riluzole): improved survival time in subjects with ALS

COC(=O)C(c1ccccc1)C1CCCCN1 (stereo not drawn) [methylphenidate]
treatment of ADHD (ADHD / ASD subjects; ADHD): safe and effective | treatment of hyperactivity in children with ASD (ADHD / ASD subjects; children with ASD): effectively treat hyperactivity in children with ASD

FAM-Ahx-SRRVISRAKLAAAL-OH ({FAM-Ahx}-SRRVISRAKLAAAL-OH) [FAM-Cerepep]
binding and uptake of FAM-peptide (Neuro2A cells [2]): bound to and was taken up by Neuro2A cells | detection in brain (mouse brain): could be detected in the brain tissues | association with neurons (NeuN) (mature neurons): could be detected associated with neurons in the brain tissues | association with astrocytes (GFAP) (astrocytes): could be detected associated with astrocytes in the brain tissues | association with microglia (CD11b) (microglia): could be detected associated with microglia in the brain tissues

NC12CC3CC(CC(C3)C1)C2 [amantadine]
results in Huntington's disease [1]: preliminary positive results

CC1C=CC=CCCC=CC=CC=CC=CC(OC2OC(C)C(O)C(N)C2O)CC2OC(O)(CC(O)C(O)CCC(O)CC(O)CC(O)CC(=O)OC(C)C(C)C1O)CC(O)C2C(=O)O (stereo not drawn) [Nystatin]
inhibitory effect on the uptake of CP-AgNPs (Neuro2A cells [3]): did not have a statistically significant inhibitory effect

O=C(O)CN(CCN(CC(=O)O)CC(=O)O)CC(=O)O [EDTA]
inhibition of CP-neutravidin binding to LRP1 (human LRP1): inhibited

FAM-RPARPAR-OH ({FAM}-RPARPAR-OH) [reference compound]
binding and uptake of FAM-peptide (Neuro2A cells [2]): only background binding

RAP: Receptor Associated Protein, inhibitor of several LDL-receptor proteins
inhibition of CP-neutravidin binding to LRP1 (human LRP1): inhibited | effect on AgNP-Cerepep binding to P3 cells (P3 human stem cells): reduced

CC(C)[C@H](NC(=O)[C@H](CS)NC(=O)CCCCCNC(=O)c1ccc2c(c1)C(=O)OC21c2ccc(O)cc2Oc2cc(O)ccc21)C(=O)N[C@@H](Cc1ccc(O)cc1)C(=O)N[C@H](C(=O)N[C@@H](CS)C(=O)N[C@@H](CC(N)=O)C(=O)NCC(=O)O)[C@@H](C)O [CVYTCNG, reference compound] ({5FAM-Ahx}-CVYTCNG-OH)
detection in brain parenchyma [4]: not detectable in the brain parenchyma; also recorded: no targeting to brain parenchyma | detection/targeting in GBM [4]: binding was detected in the GBM
